Measurements as given in paper PMC7615656 (European journal of pharmacology, 2010).

How the values were obtained:
[1] = biological target: recombinant rat α1β3γ2 receptors (Rattus norvegicus, UniProt P18508+P62813); test: Two-electrode voltage clamp of GABA-induced chloride currents in Xenopus oocytes; type: cell-based; conditions: for efficacy (% GABA EC3): α1β3γ2, ns = not significant
[2] = biological target: recombinant rat α3β3γ2F77I receptors (Rattus norvegicus, UniProt P18508+P20236, F115I); test: as above; type: cell-based; conditions: α3β3γ2F77I, ns = not significant
[3] = biological target: recombinant rat α2β3γ2 receptors (Rattus norvegicus, UniProt P18508+P23576); test: as above; type: cell-based
[4] = biological target: recombinant rat α5β3γ2 receptors (Rattus norvegicus, UniProt P18508+P19969); test: as above; type: cell-based; conditions: for efficacy (% GABA EC3): α5β3γ2, ns = not significant
[5] = biological target: recombinant rat α2β3γ2F77I receptors (Rattus norvegicus, UniProt P18508+P23576, F115I); test: as above; type: cell-based; conditions: α2β3γ2F77I, ns = not significant
[6] = biological target: recombinant rat α3β3γ2 receptors (Rattus norvegicus, UniProt P18508+P20236); test: as above; type: cell-based; conditions: for efficacy (% GABA EC3): α3β3γ2, ns = not significant
[7] = tested on: GABAA receptors of mice containing the point mutation γ2F77I; conditions: receptor binding; ref Ogris et al., 2004; cited from earlier work
[8] = biological target: recombinant rat α5β3γ2F77I receptors (Rattus norvegicus, UniProt P18508+P19969, F115I); test: Two-electrode voltage clamp of GABA-induced chloride currents in Xenopus oocytes; type: cell-based; conditions: α5β3γ2F77I, ns = not significant
[9] = tested on: GABAA receptors containing the γ2F77I mutation; test: Modulation of GABA EC3 in receptors containing the γ2F77I mutation; type: cell-based, rat; conditions: 10 μM; some γ2F77I receptors
[10] = biological target: recombinant rat α6β3γ2 receptors (Rattus norvegicus, UniProt P18508+P30191); test: Two-electrode voltage clamp of GABA-induced chloride currents in Xenopus oocytes; type: cell-based; conditions: for efficacy (% GABA EC3): α6β3γ2, ns = not significant
[11] = biological target: recombinant rat α4β3γ2 receptors (Rattus norvegicus, UniProt P18508+P28471); test: as above; type: cell-based; conditions: for efficacy (% GABA EC3): α4β3γ2, ns = not significant
[12] = biological target: recombinant rat α1β3γ2F77I receptors (Rattus norvegicus, UniProt P18508+P62813, F115I); test: as above; type: cell-based; conditions: α1β3γ2F77I, ns = not significant
[13] = tested on: α3β3γ2 receptors; conditions: 10 μM, ref Atack et al., 2006; cited from earlier work
[14] = biological target: recombinant rat α4β3γ2F77I receptors (Rattus norvegicus, UniProt P18508+P28471, F115I); test: Two-electrode voltage clamp of GABA-induced chloride currents in Xenopus oocytes; type: cell-based; conditions: ns = not significant
[15] = tested on: α5 receptors; conditions: ref Atack et al., 2006; Quirk et al., 1996; cited from earlier work
[16] = biological target: recombinant rat α6β3γ2F77I receptors (Rattus norvegicus, UniProt P18508+P30191, F115I); test: Two-electrode voltage clamp of GABA-induced chloride currents in Xenopus oocytes; type: cell-based; conditions: ns = not significant
[17] = 100 nM, α2β3γ2, ns = not significant
[18] = read-out: efficacy (% GABA EC3)

recombinant rat α4β3γ2 receptors, sequence (P28471 36-552): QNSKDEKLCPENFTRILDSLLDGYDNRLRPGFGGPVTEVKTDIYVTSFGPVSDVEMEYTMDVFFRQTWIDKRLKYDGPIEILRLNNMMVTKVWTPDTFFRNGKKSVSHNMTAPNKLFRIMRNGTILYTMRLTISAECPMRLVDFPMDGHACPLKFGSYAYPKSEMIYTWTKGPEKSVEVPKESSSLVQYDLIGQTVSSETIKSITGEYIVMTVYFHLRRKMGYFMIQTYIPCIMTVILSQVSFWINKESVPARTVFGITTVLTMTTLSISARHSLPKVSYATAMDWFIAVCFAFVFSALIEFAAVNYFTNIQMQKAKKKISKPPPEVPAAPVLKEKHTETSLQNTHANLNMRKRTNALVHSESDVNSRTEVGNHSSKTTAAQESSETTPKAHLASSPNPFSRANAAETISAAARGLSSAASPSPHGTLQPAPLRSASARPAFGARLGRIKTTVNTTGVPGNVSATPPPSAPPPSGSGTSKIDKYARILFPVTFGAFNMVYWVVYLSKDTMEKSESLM
recombinant rat α4β3γ2 receptors, sequence (P63079 26-473 partner): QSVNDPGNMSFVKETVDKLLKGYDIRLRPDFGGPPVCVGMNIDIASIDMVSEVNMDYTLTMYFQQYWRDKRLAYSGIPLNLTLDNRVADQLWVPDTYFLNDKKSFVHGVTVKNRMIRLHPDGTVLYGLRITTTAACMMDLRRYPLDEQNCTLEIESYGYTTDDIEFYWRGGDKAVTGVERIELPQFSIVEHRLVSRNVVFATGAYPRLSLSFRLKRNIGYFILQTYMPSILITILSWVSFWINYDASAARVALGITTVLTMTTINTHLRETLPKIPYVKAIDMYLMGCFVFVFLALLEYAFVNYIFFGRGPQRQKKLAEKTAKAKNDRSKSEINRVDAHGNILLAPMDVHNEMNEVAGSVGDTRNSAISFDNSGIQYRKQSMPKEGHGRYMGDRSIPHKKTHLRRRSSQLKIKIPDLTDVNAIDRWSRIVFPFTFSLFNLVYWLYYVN
recombinant rat α4β3γ2 receptors, sequence (P18508 39-466): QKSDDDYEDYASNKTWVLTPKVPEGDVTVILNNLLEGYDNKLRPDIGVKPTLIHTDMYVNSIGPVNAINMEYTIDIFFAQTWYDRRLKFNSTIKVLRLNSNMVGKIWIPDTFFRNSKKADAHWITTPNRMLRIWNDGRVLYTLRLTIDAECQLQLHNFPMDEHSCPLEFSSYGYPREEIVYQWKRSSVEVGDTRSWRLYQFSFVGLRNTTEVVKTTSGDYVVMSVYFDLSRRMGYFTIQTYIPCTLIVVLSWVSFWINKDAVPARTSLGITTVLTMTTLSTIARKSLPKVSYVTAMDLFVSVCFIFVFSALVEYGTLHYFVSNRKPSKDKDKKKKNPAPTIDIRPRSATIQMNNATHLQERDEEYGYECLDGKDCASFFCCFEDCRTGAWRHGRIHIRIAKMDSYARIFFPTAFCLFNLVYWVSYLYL
recombinant rat α4β3γ2F77I receptors, sequence (P28471 36-552): as the sequence (P28471 36-552) above
recombinant rat α4β3γ2F77I receptors, sequence (P63079 26-473 partner): as the sequence (P63079 26-473 partner) above
recombinant rat α4β3γ2F77I receptors, sequence (P18508 39-466 F115I): as the sequence (P18508 39-466) above, with F77I counted along it
recombinant rat α6β3γ2 receptors, sequence (P30191 20-453): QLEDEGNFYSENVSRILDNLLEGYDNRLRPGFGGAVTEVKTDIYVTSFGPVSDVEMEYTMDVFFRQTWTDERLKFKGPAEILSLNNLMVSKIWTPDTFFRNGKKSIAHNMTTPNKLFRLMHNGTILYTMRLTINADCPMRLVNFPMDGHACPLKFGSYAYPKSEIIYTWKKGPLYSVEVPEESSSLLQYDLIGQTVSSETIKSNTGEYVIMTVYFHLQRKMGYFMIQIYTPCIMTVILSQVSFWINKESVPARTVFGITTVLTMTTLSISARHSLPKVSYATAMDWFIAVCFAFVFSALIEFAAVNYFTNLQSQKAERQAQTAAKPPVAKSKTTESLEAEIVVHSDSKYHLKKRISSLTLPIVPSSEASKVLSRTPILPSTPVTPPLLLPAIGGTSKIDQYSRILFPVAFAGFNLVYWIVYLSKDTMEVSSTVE
recombinant rat α6β3γ2 receptors, sequence (P63079 26-473 partner): as the sequence (P63079 26-473 partner) above
recombinant rat α6β3γ2 receptors, sequence (P18508 39-466): as the sequence (P18508 39-466) above

Cc1nnc2ccc(-c3cccc(C(F)(F)F)c3)nn12 [CL 218872, 3-methyl-6-[3-trifluoromethyl-phenyl]-1,2,4-triazolo[4,3-b]pyridazine]
efficacy (% GABA EC3) ([1]; 100 nM): 119 ± 7 % GABA EC3 | efficacy (% GABA EC3) ([1]; 1 μM): 172 ± 10 % GABA EC3 | efficacy (% GABA EC3) ([1]; 10 μM): 214 ± 13 % GABA EC3 | efficacy (% GABA EC3) ([2]; 100 nM): ns | efficacy (% GABA EC3) ([2]; 1 μM): ns | efficacy (% GABA EC3) ([2]; 10 μM): 125 ± 3 % GABA EC3 | efficacy (% GABA EC3) [3, 17]: ns | efficacy (% GABA EC3) ([3]; 1 μM, α2β3γ2, ns = not significant): ns | efficacy (% GABA EC3) ([3]; 10 μM, α2β3γ2, ns = not significant): 162 ± 3 % GABA EC3 | further fold reduction of potency for enhancing GABA current ([3]; α2β3γ2 versus α3β3γ2): approximately 3 fold | efficacy (% GABA EC3) ([4]; 100 nM): ns | efficacy (% GABA EC3) ([4]; 1 μM): 114 ± 1 % GABA EC3 | efficacy (% GABA EC3) ([4]; 10 μM): 128 ± 2 % GABA EC3 | efficacy (% GABA EC3) ([5]; 100 nM): ns | efficacy (% GABA EC3) ([5]; 1 μM): ns | efficacy (% GABA EC3) ([5]; 10 μM): ns | efficacy (% GABA EC3) ([6]; 100 nM): 114 ± 2 % GABA EC3 | efficacy (% GABA EC3) ([6]; 1 μM): 138 ± 7 % GABA EC3 | efficacy (% GABA EC3) ([6]; 10 μM): 195 ± 8 % GABA EC3 | fold reduced potency for enhancing GABA EC3 ([6]; α3β3γ2 versus α1β3γ2): approximately 3 fold | shift in affinity caused by γ2F77I [7]: ~900 fold | efficacy (% GABA EC3) ([8]; 100 nM): ns | efficacy (% GABA EC3) ([8]; 1 μM): ns | efficacy (% GABA EC3) ([8]; 10 μM): 120 ± 3 % GABA EC3 | stimulation of GABA-induced chloride flux [9]: 20–40% | efficacy (% GABA EC3) ([10]; 100 nM): ns | efficacy (% GABA EC3) ([10]; 1 μM): ns | efficacy (% GABA EC3) ([10]; 10 μM): ns | efficacy (% GABA EC3) ([10]; 10 μM, listed as Cl218872): no significant stimulation | efficacy (% GABA EC3) ([11]; 100 nM): ns | efficacy (% GABA EC3) ([11]; 1 μM): ns | efficacy (% GABA EC3) ([11]; 1 μM, listed as Cl218872): no effect | efficacy (% GABA EC3) ([11]; 10 μM): 199 ± 27 % GABA EC3 | efficacy (% GABA EC3) ([12]; 100 nM): ns | efficacy (% GABA EC3) ([12]; 1 μM): ns | efficacy (% GABA EC3) ([12]; 10 μM): 132 ± 4 % GABA EC3

CCOC(=O)c1ncn2c1C1CCCN1C(=O)c1cc(OC)ccc1-2 [L-655,708, ethyl-7-methoxy-11,12,13,13a-tetrahydro-9-oxo-9H-imidazo[1,5-a]pyrrolo[2,1-c][1,4] benzodiazepine-1-carboxylate]
efficacy (% GABA EC3) ([1]; 10 nM): ns | efficacy (% GABA EC3) ([1]; 100 nM): ns | efficacy (% GABA EC3) ([1]; 1 μM): ns | efficacy (% GABA EC3) ([1]; 10 μM): 90 ± 4 % GABA EC3 | activity at 10 µM [1, 18]: 90% | efficacy (% GABA EC3) ([2]; 10 nM): ns | efficacy (% GABA EC3) ([2]; 100 nM): ns | efficacy (% GABA EC3) ([2]; 1 μM): ns | efficacy (% GABA EC3) ([2]; 10 μM): ns | efficacy (% GABA EC3) ([3]; 10 nM, α2β3γ2, ns = not significant): ns | efficacy (% GABA EC3) [3, 17]: ns | activity at 1 µM ([3]; read-out: efficacy (% GABA EC3), 1 μM, α2β3γ2, ns = not significant): 93 ± 1% | activity at 10 µM ([3]; read-out: efficacy (% GABA EC3), 10 μM, α2β3γ2, ns = not significant): 90% | efficacy (% GABA EC3) ([4]; 10 nM): ns | activity at 0.1 µM [4, 18]: 91 ± 1% | activity at 1 µM [4, 18]: 84 ± 5% | activity at 10 µM [4, 18]: 66 ± 7% | efficacy (% GABA EC3) ([5]; 10 nM): ns | efficacy (% GABA EC3) ([5]; 100 nM): ns | efficacy (% GABA EC3) ([5]; 1 μM): ns | efficacy (% GABA EC3) ([5]; 10 μM): ns | EC50 [6]: 10 ± 3 nM | activity at 0.01 µM [6, 18]: 113 ± 1% | activity at 0.1 µM [6, 18]: 126 ± 1% | activity at 1 µM [6, 18]: 131 ± 4% | activity at 10 µM [6, 18]: 126 ± 4% | reduction of GABA-induced chloride flux to [13]: 90% | shift in affinity caused by γ2F77I [7]: > 1000 fold | efficacy (% GABA EC3) ([14]; 10 nM): ns | efficacy (% GABA EC3) ([14]; 100 nM): ns | efficacy (% GABA EC3) ([14]; 1 μM): ns | efficacy (% GABA EC3) ([14]; 10 μM): ns | selectivity for α5 receptors in receptor binding assays [15]: 30–50 fold | efficacy (% GABA EC3) ([16]; 10 nM): ns | efficacy (% GABA EC3) ([16]; 100 nM): ns | efficacy (% GABA EC3) ([16]; 1 μM): ns | efficacy (% GABA EC3) ([16]; 10 μM): ns | efficacy (% GABA EC3) ([8]; 10 nM): ns | efficacy (% GABA EC3) ([8]; 100 nM): ns | efficacy (% GABA EC3) ([8]; 1 μM): ns | efficacy (% GABA EC3) ([8]; 10 μM): ns | EC50 [10]: > 470 nM | activity at 0.01 µM [10, 18]: 118 ± 4% | activity at 0.1 µM [10, 18]: 131 ± 12% | activity at 1 µM [10, 18]: 176 ± 25% | activity at 10 µM [10, 18]: 199 ± 31% | EC50 [11]: 168 ± 71 nM | efficacy (% GABA EC3) ([11]; 10 nM): ns | activity at 0.1 µM [11, 18]: 143 ± 12% | activity at 1 µM [11, 18]: 215 ± 4% | activity at 10 µM [11, 18]: 224 ± 15% | efficacy (% GABA EC3) ([12]; 10 nM): ns | efficacy (% GABA EC3) ([12]; 100 nM): ns | efficacy (% GABA EC3) ([12]; 1 μM): ns | efficacy (% GABA EC3) ([12]; 10 μM): ns
